# Measurements published in patent US20060167083A1, “Therapeutic methods and compositions involving isoflav-3-ene and isoflavan structures” (priority 2002, published 2006).
# Key:
# [1] = system: prostate cancer line DU145; assay: Anti-proliferative effect on DU145; format: cell-based; conditions: Homo sapiens, DU-145
# normal NIH 3T3 cells = assay: Viability of normal NIH 3T3 cells in focus formation assay; format: cell-based; conditions: 10 μg/ml, 3 weeks
# Description: (§1) Focus formation assay: Low passage NIH 3T3 cells were transfected with either human ras gene (Ras) or empty vector (Vect) control^19. Two days later the transfected cells were seeded in 6 well plates. After reaching confluence, the cells were cultured in the vehicle DMSO or De (10 μg/ml final) for 3 weeks with media change every 3-4 days (±De). Foci were scored after staining with 0.5% crystal violet. One experiment of two performed is shown.
# PECAM-1 = PECAM-1 expression on EC, flow cytometric analysis; format: cell-based; conditions: after De treatment, data not shown
# Sphingosine Kinase (SK) = assay: Sphingosine kinase activity assay in endothelial cells; format: cell-based, human
# Description: Sphingosine Kinase activity assay: SK activity was measured in vitro by incubating the cytosolic fraction with 10 μM sphingosine-BSA complex and [γ^32P]ATP (1 mM, 0.5 mCi/ml) for 15 minutes at 37° C., as previously described^42. Stimulation was with TNFα (1 ng/ml) (rhTNF-α; R & D Systems, Minneapolis Minn. USA), PMA (100 ng/ml) and IL-1β (100 units/ml) (hrIL-1β; Immunex, Seattle Wa. USA) for 10 minutes. Cells were treated with De or DMSO vehicle as control for 18 hours prior to stimulation.
# VCAM-1 = VCAM-1 expression assay on endothelial cells (FACS); format: cell-based, human; conditions: 10 μg/ml 18 hours prior to stimulation; TNF and IL-1
# Description: (§2) E selectin and VCAM-1 assays: HUVEC were plated at 5×10^5 cells per 6 well dish. Cells were treated with DMSO vehicle or De (10 μg/ml final) for 18 hours prior to TNFα (1 ng/ml) addition. After 4 or 18 hours, cells were washed with PBS and incubated with antibodies against E selectin (Mab49-1B11) or VCAM-1 (Nab51-10C9) for 30 min. Goat F(ab′)2 fragment mouse-IgG(H+L)-FITC antibody (Immunotech, Marseille, France) was then added for 30 min. The cells were then trypsinised and FACS analysed on a Coulter Epics® XL-MCL (Beckman Coulter). Results are expressed as arbitrary units relating to the mean intensity of FITC fluorescence.
# VEGF receptor 2 = VEGF receptor 2 expression on EC, flow cytometric analysis; format: cell-based; conditions: after De treatment, data not shown
# [2] = system: Human umbilical vein endothelial cells (HUVEC); assay: Endothelial cell migration (wound) assay; format: cell-based
# Description: Migration assay: HUVEC were plated at 5×10^5 cells per gelatin-coated 6 well dish and grown to confluence over 48 hours. Wounds were made in the monolayer, cells washed 3 times and fresh complete media with or without De (10 μg/ml final concentration) added. Migration was viewed over the following 18-72 hours.
# E selectin = E selectin expression assay on endothelial cells (FACS); format: cell-based, human; conditions: 10 μg/ml 18 hours prior to stimulation; TNF and IL-1
# Description: as §2
# human topo I [3] = biological target: T1, human topo I (Homo sapiens, UniProt P11387); assay: Topo I-mediated plasmid-nicking assay; format: biochemical; conditions: 20 and 100 μg/ml
# T1 construct: purchased Topogen (Columbus, Ohio)
# T1 sequence (P11387 1-765): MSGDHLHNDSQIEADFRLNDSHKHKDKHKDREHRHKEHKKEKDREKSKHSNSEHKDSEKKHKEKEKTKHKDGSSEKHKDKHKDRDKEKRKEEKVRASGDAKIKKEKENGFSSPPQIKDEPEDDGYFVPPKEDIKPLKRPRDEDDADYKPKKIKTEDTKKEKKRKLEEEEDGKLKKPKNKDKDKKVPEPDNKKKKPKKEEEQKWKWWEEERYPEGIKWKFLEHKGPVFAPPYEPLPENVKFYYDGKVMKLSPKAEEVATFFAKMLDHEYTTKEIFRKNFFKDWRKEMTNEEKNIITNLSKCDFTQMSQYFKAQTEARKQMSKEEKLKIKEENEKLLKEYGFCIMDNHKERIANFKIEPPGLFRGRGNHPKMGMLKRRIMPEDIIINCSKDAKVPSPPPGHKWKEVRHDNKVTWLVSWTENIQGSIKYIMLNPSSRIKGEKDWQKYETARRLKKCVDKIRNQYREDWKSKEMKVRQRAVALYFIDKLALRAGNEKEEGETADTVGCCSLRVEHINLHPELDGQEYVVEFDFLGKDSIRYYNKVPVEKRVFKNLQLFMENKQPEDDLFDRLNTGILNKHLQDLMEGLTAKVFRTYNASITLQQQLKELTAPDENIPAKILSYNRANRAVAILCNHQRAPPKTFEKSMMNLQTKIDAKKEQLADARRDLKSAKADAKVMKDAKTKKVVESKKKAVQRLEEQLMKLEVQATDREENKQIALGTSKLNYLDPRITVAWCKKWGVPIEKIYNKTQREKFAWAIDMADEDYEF
# Description: Single-strand DNA breakage was determined by converting relaxed (REL) or supercoiled (SC) pUC8 DNA to the nicked form (NIC).
# Under the electrophoretic conditions that were used in the experiment shown in FIG. 4, covalently closed circular (supercoiled or relaxed) plasmid DNA migrates on the bottom of the gel. In the presence of a topo I poison that stabilises the cleavable complex, and following denaturation and degradation of the enzyme with proteinase K/SDS, the resulting nicked DNA migrates on the top of the gel.
# Topo I poisons enhance topo I-mediated pUC8 DNA cleavage under the reaction conditions provided by the supplier of the enzyme (Topogen, Inc.). Briefly, 20 μl of reaction mixtures contained 10 mM Tris-HCl, pH 7.5, 1 mM EDTA, 100 mM NaCl, 1 μl of the test agent (or solvent), 0.5 μg of pUC8, and 10 units of human topo I (added last). After a 30-min incubation at 37° C., SDS-proteinase K was added, and, following a 30-min incubation at 37° C., samples were extracted with CHCl3-isopropanol and electrophoresed on a 1% agarose gel containing 0.5 μg/ml ethidium bromide. Gels were photographed, and photographic negatives were scanned.
# [4] = system: Ras transformed NIH 3T3 cells; assay: Focus formation assay; format: cell-based; conditions: 10 μg/ml, 3 weeks
# Description: as §1
# IL-8 = IL-8 secretion from endothelial cells (immunoassay); format: cell-based, human; conditions: TNF stimulated endothelial cells
# Description: IL8 assay: IL-8 assays were performed using a “Quantikine Human IL-8 Immunoassay” (R & D Systems, Minneapolis Minn. USA).
# [5] = system: Human umbilical vein endothelial cells (HUVEC); assay: Endothelial cell proliferation assay (MTT); format: cell-based
# Description: Cells: Human umbilical vein endothelial cells (HUVEC) were prepared and grown as previously described^30. The cells were used between passages 2 and 6 for all experiments. The human prostatic adenocarcinoma cell line, LNCaP was obtained from American Tissue Type Collection and maintained according to the instructions of the supplier.
# Proliferation assay: HUVEC were seeded at 3×10^3 cells per gelatin-coated microtitre well and grown in complete medium for 3 days. Dehydroequol (De) was added 3 hours after plating. Proliferation was measured using the MTT assay (Promega, Wis., USA) and is given as the rate of proliferation over the 3 days±SEM of quadruplicate determinations for each group. Proliferation of LNCaP cells was determined using the MTT assay. Cells were seeded at 2.5×10^3 cells per microtitre well. De was added 4 days after plating and assayed after a further 5 days of growth. Cell viability is expressed as a percentage of control untreated cells.
# human topo I [6] = biological target: T1, human topo I; assay: Topo I-mediated plasmid relaxation assay; format: biochemical; conditions: concentrations up to 100 μg/ml, absence of ATP
# Description: Topo I activity was determined by converting supercoiled pUC8 DNA (SC) into its relaxed from (REL).
# For the determination of topoisomerase (topo) I catalytic activity, pUC8 DNA was used as the substrate in a reaction volume of 20 μl containing the following: 10 mM Tris-HCl, pH 7.9, 1 mM EDTA, 150 mM NaCl, 0.1% BSA, 0.1 mM spermidine, 5% glycerol, and 2 units of purified human topo I. The inhibitor, when applicable, was added as indicated, and the reaction was initiated by the addition of the enzyme. Reactions were carried out at 37° C. for 30 min. Gel electrophoresis was performed at 4 V/cm for 5 h in Tris-borate-EDTA buffer. For the quantitative determination of topo I activity, photographic negatives were scanned. The area representing supercoiled DNA, migrating as a single band at the bottom of the gel, was determined. The concentrations of the inhibitor that prevented 50% of the supercoiled DNA from being converted into relaxed DNA (IC50 values) were determined by averaging the data from at least three experiments.
structure (smiles),measurement,setting,value
"Oc1ccc(C2=Cc3ccc(O)cc3OC2)cc1 [Dehydroequol, 4′,7-dihydroxyisoflav-3-ene]",IC50,[1],3 µg/mL
same,viability of normal cells,normal NIH 3T3 cells,still maintaining the viability
same,level of expression of PECAM-1,PECAM-1,no changes
same,"SK inhibition compared with N,N-dimethylsphingosine (DMS)",Sphingosine Kinase (SK),equipotent
same,inhibition of SK activity generated by stimulation with IL-1,"Sphingosine Kinase (SK); dose-dependent, 18 hours pretreatment, IL-1β 100 units/ml 10 minutes",inhibits
same,inhibition of SK activity generated by stimulation with PMA,"Sphingosine Kinase (SK); dose-dependent, 18 hours pretreatment, PMA 100 ng/ml 10 minutes",inhibits
same,inhibition of SK activity generated by stimulation with TNF,"Sphingosine Kinase (SK); dose-dependent, 18 hours pretreatment, TNFα 1 ng/ml 10 minutes",inhibits
same,effect on basal levels of SK activity,Sphingosine Kinase (SK); unstimulated,no effect
same,induction of VCAM-1 on the endothelium,VCAM-1,inhibits the induction
same,level of expression of VEGF receptor 2,VEGF receptor 2,no changes
same,inhibition of EC migration,[2]; 10 μg/ml,inhibits
same,viability of EC not in the vicinity of the wound,[2]; in the presence of De for 72 hours,remained viable
same,induction of E selectin on the endothelium,E selectin,inhibits the induction
same,topo I-mediated single-strand DNA breakage (nicked DNA),human topo I [3],failed to produce nicked DNA
same,inhibition of development of colonies (foci),[4],completely inhibited
same,secretion of EL-8,IL-8,inhibits the secretion
same,cell death in proliferation assays,[5],did not cause cell death
same,inhibition at 10 µg/mL,"[5]; Homo sapiens, HUVEC, 10 μg/ml, five experiments",91%
same,inhibition of topo I-catalysed relaxation of pUC8 DNA,human topo I [6],did not inhibit
